Measured values: US8772499B2, “TRPV3 modulators” (AbbVie Inc., priority 2011, dated 2014)
Read-outs that look alike come from different tables or passages of the source.

How the values were obtained:
[1] = In vitro rat microsomal stability assay; format: in vitro ADME, rat (Sprague-Dawley)
Summary of the method: (§1)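 Compound is mixed with liver microsomes (human, or rat of the Sprague-Dawley strain). The mixture is then held at 37° C. in the presence of NADPH. Time-zero plates also receive NADPH.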

[2] = In vitro human microsomal stability assay; format: in vitro ADME
Summary of the method: as §1

human TRPV3 = biological target: T1, human TRPV3 (Homo sapiens, UniProt Q8NET8); experiment: In vitro antagonism of recombinant human TRPV3 activation (FLIPR Tetra calcium assay); format: cell-based; conditions: HEK293 cells stably expressing human TRPV3, agonist 2-APB at 80 μM
T1 construct: expressed in transfected cells
T1 sequence (Q8NET8 1-790): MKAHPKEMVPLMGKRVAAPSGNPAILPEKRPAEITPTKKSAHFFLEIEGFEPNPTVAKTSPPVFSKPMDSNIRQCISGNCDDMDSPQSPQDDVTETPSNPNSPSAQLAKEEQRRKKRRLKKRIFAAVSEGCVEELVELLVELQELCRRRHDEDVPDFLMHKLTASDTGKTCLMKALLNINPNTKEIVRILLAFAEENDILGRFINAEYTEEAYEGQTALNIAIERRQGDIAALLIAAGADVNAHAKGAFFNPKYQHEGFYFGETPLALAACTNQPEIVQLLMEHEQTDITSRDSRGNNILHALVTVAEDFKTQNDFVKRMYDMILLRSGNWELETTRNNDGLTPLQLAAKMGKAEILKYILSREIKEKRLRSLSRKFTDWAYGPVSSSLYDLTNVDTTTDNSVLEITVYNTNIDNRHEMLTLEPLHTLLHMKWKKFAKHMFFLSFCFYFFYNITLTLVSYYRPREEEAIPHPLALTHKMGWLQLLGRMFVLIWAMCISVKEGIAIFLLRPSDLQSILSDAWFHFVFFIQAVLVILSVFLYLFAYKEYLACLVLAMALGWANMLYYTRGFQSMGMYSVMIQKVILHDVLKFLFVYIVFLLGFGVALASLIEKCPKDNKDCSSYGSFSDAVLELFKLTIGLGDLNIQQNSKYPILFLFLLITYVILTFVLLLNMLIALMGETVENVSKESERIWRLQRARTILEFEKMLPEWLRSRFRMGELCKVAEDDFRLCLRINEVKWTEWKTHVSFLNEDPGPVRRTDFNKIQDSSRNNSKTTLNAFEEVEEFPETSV
Summary of the method: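 HEK293 cells stably expressing human TRPV3, loaded with Calcium-4 dye for 90–120 min, received compound in DPBS, then 80 μM 2-APB (EC80) 3 min later. Max-minus-min fluorescence expressed as % of 2-APB response without antagonist; IC50 values mostly averages of n≥2 runs.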

[3] = Sprague-Dawley, rat, microsomes, 0.5 h, 0.5 μM, pH 7.4
[4] = human, microsomes, 0.5 h, 0.5 μM, pH 7.4
[5] = actual measured value shown parenthetically, in most cases average of at least two runs, read-out: IC50
[6] = reported range, read-out: IC50 (range class)
[7] = rat liver microsomes (Sprague-Dawley), 0.5 μM substrate, 0.25 mg/mL microsomal protein, pH 7.4, 37° C., NADPH, 30 minutes
[8] = human liver microsomes, 0.5 μM substrate, 0.25 mg/mL microsomal protein, pH 7.4, 37° C., NADPH, 30 minutes

| RAT MICROSOMAL STABILITY (% REMAINING AFTER 30 MINUTES) [1, 3] [%] | HUMAN MICROSOMAL STABILITY (% REMAINING AFTER 30 MINUTES) [2, 4] [%] | IC50 (human TRPV3; [6]) [µM] | Compound | IC50 (human TRPV3; [5]) [µM] | RAT MICROSOMAL STABILITY (% REMAINING AFTER 30 MINUTES) [1, 7] [%] | HUMAN MICROSOMAL STABILITY (% REMAINING AFTER 30 MINUTES) [2, 8] [%] |
| --- | --- | --- | --- | --- | --- | --- |
| 18 | 41 |  | OC(c1ccccn1)C1(c2ccc(Cl)c(C(F)(F)F)c2)CC(F)(F)C1 (stereo not drawn) [Example 138, {1-[4-chloro-3-(trifluoromethyl)phenyl]-3,3-difluorocyclobutyl}(pyridin-2-yl)methanol] | 0.83 |  |  |
| 26 | 41 |  | OC(c1ccccn1)C1(c2ccc(F)c(C(F)(F)F)c2)CC(F)(F)C1 (stereo not drawn) [Example 139, {3,3-difluoro-1-[4-fluoro-3-(trifluoromethyl)phenyl]cyclobutyl}(pyridin-2-yl)methanol] | 0.75 |  |  |
| 37 | >85 | > 20 | OC(c1ccccn1)C1(c2ccc(Cl)c(Cl)c2)CCNCC1 (stereo not drawn) [Example 140, [4-(3,4-dichlorophenyl)piperidin-4-yl](pyridin-2-yl)methanol] | > 20 |  |  |
| 37 | >85 | > 20 | OC(c1ccccn1)C1(c2ccccc2OC(F)(F)F)CCNCC1 (stereo not drawn) [Example 142, pyridin-2-yl{4-[2-(trifluoromethoxy)phenyl]piperidin-4-yl}methanol] | > 20 |  |  |
| 51 | >85 | > 20 | OC(c1ccccn1)C1(c2ccc(OC(F)(F)F)cc2)CCNCC1 (stereo not drawn) [Example 144, pyridin-2-yl{4-[4-(trifluoromethoxy)phenyl]piperidin-4-yl}methanol] | > 20 |  |  |
|  |  |  | CN1CCC(c2ccc(OC(F)(F)F)cc2)(C(O)c2ccccn2)CC1 (stereo not drawn) [Example 145, {1-methyl-4-[4-(trifluoromethoxy)phenyl]piperidin-4-yl}(pyridin-2-yl)-methanol] | 1.77 | 42 | 68 |
|  |  |  | CN1CCC(c2cccc(OC(F)(F)F)c2)(C(O)c2ccccn2)CC1 (stereo not drawn) [Example 146, {1-methyl-4-[3-(trifluoromethoxy)phenyl]piperidin-4-yl}(pyridin-2-yl)-methanol] | 12.8 | 8.9 | 84 |
| 79 | >85 | > 20 | OC(c1ccccn1)C1(c2ccc(C(F)(F)F)cc2)CCNCC1 (stereo not drawn) [Example 147, pyridin-2-yl{4-[4-(trifluoromethyl)phenyl]piperidin-4-yl}methanol] | > 20 |  |  |
|  |  |  | OC(c1ccccn1)C1(c2cccc(OC(F)(F)F)c2)CCNCC1 (stereo not drawn) [Example 148, pyridin-2-yl{4-[3-(trifluoromethoxy)phenyl]piperidin-4-yl}methanol] | 3.1 | 53 | >85 |
|  |  |  | CN1CCC(c2ccccc2OC(F)(F)F)(C(O)c2ccccn2)CC1 (stereo not drawn) [Example 149, {1-methyl-4-[2-(trifluoromethoxy)phenyl]piperidin-4-yl}(pyridin-2-yl)-methanol] | 6.2 | 62 | >85 |

| Compound | RAT MICROSOMAL STABILITY (% REMAINING AFTER 30 MINUTES) [1, 3] [%] | HUMAN MICROSOMAL STABILITY (% REMAINING AFTER 30 MINUTES) [2, 4] [%] | IC50 (human TRPV3; [6]) [µM] | IC50 (human TRPV3; [5]) [µM] | RAT MICROSOMAL STABILITY (% REMAINING AFTER 30 MINUTES) [1, 7] [%] | HUMAN MICROSOMAL STABILITY (% REMAINING AFTER 30 MINUTES) [2, 8] [%] |
| --- | --- | --- | --- | --- | --- | --- |
| CN1CCC(c2ccc(Cl)c(Cl)c2)(C(O)c2ccccn2)CC1 (stereo not drawn) [Example 141, [4-(3,4-dichlorophenyl)-1-methylpiperidin-4-yl](pyridin-2-yl)methanol] |  |  | > 20 | > 20 | 59 | >85 |
| CN1CCC(c2ccc(C(F)(F)F)cc2)(C(O)c2ccccn2)CC1 (stereo not drawn) [Example 143, {1-methyl-4-[4-(trifluoromethyl)phenyl]piperidin-4-yl}(pyridin-2-yl)-methanol] |  |  | > 20 | > 20 | 80 | >85 |
